In ChEMBL document CHEMBL4665878, “A new naphthalene derivative with anti-amyloidogenic activity as potential therapeutic agent for Alzheimer's disease” (Bioorg Med Chem, 2020):
Calls of active or inactive are those of the source. The calls are words filed in the database; no cut-off is given here.

How the values were obtained:
Mus musculus [1] = experiment: Cognitive enhancing effect in female 3xTg-AD transgenic mouse harboring human PS1M146V/APPSWE/tauP301L assessed as time spent in the target quadrant at 1 mg/kg, po for […] by Morris water maze test; format: functional, organism-based; conditions: time 8.0 weeks
Mus musculus [2] = experiment: Reduction in amyloid fibril elongation in po dosed 3xTg-AD transgenic mouse brain hippocampus subiculum using BAM-10 primary antibody by immunohistochemical assay relative to 3xTg-AD-non T; format: functional, organism-based
Mus musculus [3] = experiment: Cognitive enhancing effect in female 3xTg-AD transgenic mouse harboring human PS1M146V/APPSWE/tauP301L assessed as latency to enter to the target quadrant at 1 mg/kg, po for 8 weeks by Morris water maze test; format: functional, organism-based
Astrocyte = experiment: Cytotoxicity against C57BL/J6 mouse astrocyte assessed as cell viability after 24 hrs by MTT assay; format: cell-based
[4] = Octanol/PBS partition co-efficient, log P of compound; format: physicochemical
Mus musculus [5] = experiment: Cognitive enhancing effect in 3xTg-AD transgenic mouse harboring human PS1M146V/APPSWE/tauP301L assessed as number of entries to the target quadrant at 1 mg/kg, po for 8 weeks measured by Morris water maze test; format: functional, organism-based
[6] = Ex vivo binding affinity to amyloid beta (1 to 42) in 3xTg-AD transgenic APP/PS1 mouse brain section assessed as binding constant after 40 mins by autoradiography; format: tissue-based
Mus musculus [7] = experiment: Reduction in amyloid beta plaques in po dosed 3xTg-AD transgenic mouse brain hippocampus subiculum using BAM-10 primary antibody by immunohistochemical assay relative to 3xTg-AD-non T; format: functional, organism-based
[8] = target: Amyloid-beta precursor protein (Homo sapiens) (UniProt P05067); experiment: Inhibition of Abeta(1 to 42) peptide aggregation in immortalized human microglia with SV40 assessed as reduction in fluorescence intensity at 1 uM and measured after 48 hrs by thiazine red staining method
Mus musculus [9] = experiment: Cognitive enhancing effect in female 3xTg-AD transgenic mouse harboring human PS1M146V/APPSWE/tauP301L assessed as escape latency time at 1 mg/kg, po for 8 weeks by Morris water maze test; format: functional, organism-based
[10] = target: Amyloid-beta precursor protein (Homo sapiens) (UniProt P05067); experiment: Inhibition of Abeta(1 to 42) peptide aggregation in immortalized human microglia with SV40 assessed as reduction in fluorescence intensity at 0.001 to 50 micromol/L and measured after 48 hrs by thiazine red staining method; format: tissue-based; conditions: dose micromol/L 0.001-50, time 48.0 hrs
[11] = target: Amyloid-beta precursor protein (Homo sapiens) (UniProt P05067); experiment: Inhibition of Abeta(1 to 42) peptide aggregation in immortalized human microglia with SV40 assessed as reduction in fluorescence intensity at 1 nM and measured after 48 hrs by thiazine red staining method; format: tissue-based

Amyloid-beta precursor protein (Homo sapiens), sequence (P05067 whole entry): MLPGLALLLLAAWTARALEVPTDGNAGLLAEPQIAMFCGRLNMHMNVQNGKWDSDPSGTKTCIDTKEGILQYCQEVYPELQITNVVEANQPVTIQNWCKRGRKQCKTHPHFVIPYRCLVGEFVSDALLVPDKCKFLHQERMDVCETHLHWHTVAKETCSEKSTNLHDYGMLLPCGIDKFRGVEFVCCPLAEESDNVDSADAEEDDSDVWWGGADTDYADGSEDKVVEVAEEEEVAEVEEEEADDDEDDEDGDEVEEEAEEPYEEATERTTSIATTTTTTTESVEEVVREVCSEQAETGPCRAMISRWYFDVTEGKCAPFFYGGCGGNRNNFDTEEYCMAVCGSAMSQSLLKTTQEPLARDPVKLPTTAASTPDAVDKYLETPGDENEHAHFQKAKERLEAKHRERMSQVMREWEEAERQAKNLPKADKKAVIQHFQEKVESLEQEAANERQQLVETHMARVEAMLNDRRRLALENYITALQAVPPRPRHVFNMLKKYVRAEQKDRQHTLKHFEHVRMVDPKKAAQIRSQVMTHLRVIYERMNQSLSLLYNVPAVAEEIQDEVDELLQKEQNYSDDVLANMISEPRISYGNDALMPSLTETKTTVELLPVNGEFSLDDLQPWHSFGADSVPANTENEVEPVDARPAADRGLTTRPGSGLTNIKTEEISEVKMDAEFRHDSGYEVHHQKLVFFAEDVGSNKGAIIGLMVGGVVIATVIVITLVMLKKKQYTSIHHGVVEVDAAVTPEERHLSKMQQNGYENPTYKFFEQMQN

logP [4]	Kd [6] [µM]	SMILES	Activity (Mus musculus [1])	inhibition (Mus musculus [2])	Activity (Mus musculus [3])	IC50 (Astrocyte) [µM]	Activity (Mus musculus [5])	Activity (Mus musculus [7])	inhibition [8]	Activity (Mus musculus [9])	inhibition [10]	inhibition [11]
1.77	0.0158	CSC(=S)NCCNC(=O)CCC(=O)Nc1cccc2ccccc12	inactive	Active	inactive	195	Active	Active	Active	inactive	Active	–
–	0.016	CNc1ccc(/C=C/c2ccc(OCCOCCOCCF)cc2)cc1 [FLORBETABEN]	–	–	–	–	–	–	–	–	–	–
–	–	O=C(O)CCCCCNC(=O)CCC(=O)Nc1cccc2ccccc12	–	–	–	433	–	–	–	–	Active	Active
–	–	O=C(O)CCNC(=O)CCC(=O)Nc1cccc2ccccc12	–	–	–	874	–	–	–	–	Active	Active
